# Data published in PMC11051198, “Synthesis and Late-Stage Modification of (−)-Doliculide Derivatives Using Matteson’s Homologation Approach” (Marine Drugs, 2024).
# Assays:
# CHO-K1 = test: MTT cytotoxicity assay, CHO-K1; assay type: cell-based; details: CHO-K1 mutagenized Chinese hamster ovary, 5 d incubation, 37 °C, 5% CO2, DMEM + 10% FBS, mean ± SD of two independent measurements
# Experimental: (§1) The cell cultures were cultivated at 37 °C under an atmosphere containing 5% CO2. Before usage, Dulbecco’s Modified Eagle Medium (DMEM) from Gibco (Thermo Fisher Scientific) was supplemented with 10% fetal bovine serum (FBS) from Gibco. Cells were used between passage 5 and 30 and were split separately for at least two passages to obtain biological repeats. Cells were washed with PBS and 0.5 mL trypsin was added before treatment. Cells were then incubated for 5 min before adding 10 mL medium containing 10% FBS. Per well, 120 µL cell suspension 5 × 10^4 cells/mL (CHO-K1, HCT-116. U-2 OS, KB3.1) or 1 × 10^5 cells/mL (HepG2) cells were seeded in transparent 96-well cell bind plate and incubated for 2 h at 37 °C and an atmosphere of 5% CO2. Each compound was tested in a serial dilution so that the starting concentration is 111 µg/mL, which is diluted by 1:3 as well as the internal solvent control prepared in DMEM with 10% FBS. After 5 d incubation at 37 °C and an atmosphere of 5% CO2, 20 μL of 5 mg/mL MTT (thiazolyl blue tetrazolium bromide) in PBS was added per well and cells were further incubated until coloration of the cells. The medium was then discarded and 100 μL 2-propanol/10 N HCl (250:1) added to the cells. The plates were analyzed by measuring the absorbance at 570 nm and 630 nm as reference using a microplate reader Infinite® 200 Pro from Tecan (Männedorf, Switzerland). Absorption is then converted to cell viability expressed as percentage relative to the respective solvent control. The calculated percentage of growth inhibition were determined by sigmoidal curve fitting using GraphPad (Boston, MA, USA) Prism software (version 10.0.2). Two independent measurements were generated for mean and standard deviation.
# U-2 OS = test: MTT cytotoxicity assay, U-2 OS; assay type: cell-based; details: U-2 OS human bone osteosarcoma, 5 d incubation, 37 °C, 5% CO2, DMEM + 10% FBS, mean ± SD of two independent measurements
# Experimental: as §1
# HCT-116 = test: MTT cytotoxicity assay, HCT-116; assay type: cell-based; details: HCT-116 human colon carcinoma, 5 d incubation, 37 °C, 5% CO2, DMEM + 10% FBS, mean ± SD of two independent measurements
# Experimental: as §1
# HeLa-S3 cells = details: ref [1]; cited from earlier work
# Experimental: Isolation of (−)-doliculide (Figure 1) from the Japanese sea hare, Dolabella auricularia, was first reported almost 30 years ago by Yamada et al., along with its potent cytotoxicity against HeLa-S3 cells (IC50 = 1 ng/mL). […] Due to their biological activities as anticancer agents, naturally derived cyclopeptides are interesting candidates for drug development, and so ...
# HepG2 = test: MTT cytotoxicity assay, HepG2; assay type: cell-based; details: HepG2 human hepatocellular carcinoma, 5 d incubation, 37 °C, 5% CO2, DMEM + 10% FBS, mean ± SD of two independent measurements
# Experimental: as §1
# KB3.1 = test: MTT cytotoxicity assay, KB3.1; assay type: cell-based; details: KB3.1 human epidermoid carcinoma cell line, 5 d incubation, 37 °C, 5% CO2, DMEM + 10% FBS, mean ± SD of two independent measurements
# Experimental: as §1
# [1] = ≤ values: individual results varied widely, given as a range
Molecule,IC50 (CHO-K1) [nM],IC50 (U-2 OS; [1]) [nM],IC50 (HCT-116; [1]) [nM],"cytotoxicity against HeLa-S3 cells, IC50 (HeLa-S3 cells) [ng/mL]",IC50 (HepG2) [nM],IC50 (KB3.1; [1]) [nM],IC50 (U-2 OS) [nM],IC50 (KB3.1) [nM],IC50 (HCT-116) [nM]
"CC(C)[C@@H]1C[C@H](O)[C@H](C)C[C@H](C)C[C@H](C)C(=O)NCC(=O)N(C)[C@H](Cc2ccc(O)c(I)c2)C(=O)O1 [A, (−)-Doliculide]",111 ± 4.5,25.2 ± 1.8,8.8 ± 0.5,1,16.4 ± 4.2,38 ± 9.9,,,
"C[C@H]1C[C@@H](C)[C@@H](O)C[C@@H](CCCSCc2ccccc2)OC(=O)[C@@H](Cc2ccc(O)c(I)c2)N(C)C(=O)CNC(=O)[C@@H](C)C1 [Compound 11c, (3R,9S,11S,13R,14S,16R)-16-[3-(Benzylthio)propyl]-14-hydroxy-3-(4-hydroxy-3-iodobenzyl)-4,9,11,13-tetramethyl-1-oxa-4,7-diazacyclohexadecane-2,5,8-trione]",391 ± 122,582 ± 68,10.8 ± 1.2,,> 50000,37 ± 1,,,
"CCOC(=O)CCSCCC[C@@H]1C[C@H](O)[C@H](C)C[C@H](C)C[C@H](C)C(=O)NCC(=O)N(C)[C@H](Cc2ccc(O)c(I)c2)C(=O)O1 [Compound 11d, Ethyl 3-({3-[(3R,9S,11S,13R,14S,16R)-14-hydroxy-3-(4-hydroxy-3-iodobenzyl)-4,9,11,13-tetramethyl-2,5,8-trioxo-1-oxa-4,7-diazacyclohexadecan-16-yl]propyl}-thio)propanoate]",9840 ± 3870,,60 ± 13,,> 49400,,4900 ± 3870,3930 ± 1140,
"Benzyl 2-(4-{[(3R,9S,11S,13R,14S,16R)-14-hydroxy-3-(4-hydroxy-3-iodobenzyl)-4,9,11,13-tetramethyl-2,5,8-trioxo-1-oxa-4,7-diazacyclohexadecan-16-yl]methyl}-1H-1,2,3-triazol-1-yl)acetate [Compound 9c]",23800 ± 500,,,,> 46000,,14400 ± 1300,21900 ± 12600,3810 ± 1000
